Each structure is given as a SMILES string.

One assay deals with T1, ATR kinase (full-length ATR) (Homo sapiens, UniProt Q13535).
T1 construct: Assays were carried out at 25° C. in the presence of 5 nM full-length ATR
T1 sequence (Q13535 whole entry): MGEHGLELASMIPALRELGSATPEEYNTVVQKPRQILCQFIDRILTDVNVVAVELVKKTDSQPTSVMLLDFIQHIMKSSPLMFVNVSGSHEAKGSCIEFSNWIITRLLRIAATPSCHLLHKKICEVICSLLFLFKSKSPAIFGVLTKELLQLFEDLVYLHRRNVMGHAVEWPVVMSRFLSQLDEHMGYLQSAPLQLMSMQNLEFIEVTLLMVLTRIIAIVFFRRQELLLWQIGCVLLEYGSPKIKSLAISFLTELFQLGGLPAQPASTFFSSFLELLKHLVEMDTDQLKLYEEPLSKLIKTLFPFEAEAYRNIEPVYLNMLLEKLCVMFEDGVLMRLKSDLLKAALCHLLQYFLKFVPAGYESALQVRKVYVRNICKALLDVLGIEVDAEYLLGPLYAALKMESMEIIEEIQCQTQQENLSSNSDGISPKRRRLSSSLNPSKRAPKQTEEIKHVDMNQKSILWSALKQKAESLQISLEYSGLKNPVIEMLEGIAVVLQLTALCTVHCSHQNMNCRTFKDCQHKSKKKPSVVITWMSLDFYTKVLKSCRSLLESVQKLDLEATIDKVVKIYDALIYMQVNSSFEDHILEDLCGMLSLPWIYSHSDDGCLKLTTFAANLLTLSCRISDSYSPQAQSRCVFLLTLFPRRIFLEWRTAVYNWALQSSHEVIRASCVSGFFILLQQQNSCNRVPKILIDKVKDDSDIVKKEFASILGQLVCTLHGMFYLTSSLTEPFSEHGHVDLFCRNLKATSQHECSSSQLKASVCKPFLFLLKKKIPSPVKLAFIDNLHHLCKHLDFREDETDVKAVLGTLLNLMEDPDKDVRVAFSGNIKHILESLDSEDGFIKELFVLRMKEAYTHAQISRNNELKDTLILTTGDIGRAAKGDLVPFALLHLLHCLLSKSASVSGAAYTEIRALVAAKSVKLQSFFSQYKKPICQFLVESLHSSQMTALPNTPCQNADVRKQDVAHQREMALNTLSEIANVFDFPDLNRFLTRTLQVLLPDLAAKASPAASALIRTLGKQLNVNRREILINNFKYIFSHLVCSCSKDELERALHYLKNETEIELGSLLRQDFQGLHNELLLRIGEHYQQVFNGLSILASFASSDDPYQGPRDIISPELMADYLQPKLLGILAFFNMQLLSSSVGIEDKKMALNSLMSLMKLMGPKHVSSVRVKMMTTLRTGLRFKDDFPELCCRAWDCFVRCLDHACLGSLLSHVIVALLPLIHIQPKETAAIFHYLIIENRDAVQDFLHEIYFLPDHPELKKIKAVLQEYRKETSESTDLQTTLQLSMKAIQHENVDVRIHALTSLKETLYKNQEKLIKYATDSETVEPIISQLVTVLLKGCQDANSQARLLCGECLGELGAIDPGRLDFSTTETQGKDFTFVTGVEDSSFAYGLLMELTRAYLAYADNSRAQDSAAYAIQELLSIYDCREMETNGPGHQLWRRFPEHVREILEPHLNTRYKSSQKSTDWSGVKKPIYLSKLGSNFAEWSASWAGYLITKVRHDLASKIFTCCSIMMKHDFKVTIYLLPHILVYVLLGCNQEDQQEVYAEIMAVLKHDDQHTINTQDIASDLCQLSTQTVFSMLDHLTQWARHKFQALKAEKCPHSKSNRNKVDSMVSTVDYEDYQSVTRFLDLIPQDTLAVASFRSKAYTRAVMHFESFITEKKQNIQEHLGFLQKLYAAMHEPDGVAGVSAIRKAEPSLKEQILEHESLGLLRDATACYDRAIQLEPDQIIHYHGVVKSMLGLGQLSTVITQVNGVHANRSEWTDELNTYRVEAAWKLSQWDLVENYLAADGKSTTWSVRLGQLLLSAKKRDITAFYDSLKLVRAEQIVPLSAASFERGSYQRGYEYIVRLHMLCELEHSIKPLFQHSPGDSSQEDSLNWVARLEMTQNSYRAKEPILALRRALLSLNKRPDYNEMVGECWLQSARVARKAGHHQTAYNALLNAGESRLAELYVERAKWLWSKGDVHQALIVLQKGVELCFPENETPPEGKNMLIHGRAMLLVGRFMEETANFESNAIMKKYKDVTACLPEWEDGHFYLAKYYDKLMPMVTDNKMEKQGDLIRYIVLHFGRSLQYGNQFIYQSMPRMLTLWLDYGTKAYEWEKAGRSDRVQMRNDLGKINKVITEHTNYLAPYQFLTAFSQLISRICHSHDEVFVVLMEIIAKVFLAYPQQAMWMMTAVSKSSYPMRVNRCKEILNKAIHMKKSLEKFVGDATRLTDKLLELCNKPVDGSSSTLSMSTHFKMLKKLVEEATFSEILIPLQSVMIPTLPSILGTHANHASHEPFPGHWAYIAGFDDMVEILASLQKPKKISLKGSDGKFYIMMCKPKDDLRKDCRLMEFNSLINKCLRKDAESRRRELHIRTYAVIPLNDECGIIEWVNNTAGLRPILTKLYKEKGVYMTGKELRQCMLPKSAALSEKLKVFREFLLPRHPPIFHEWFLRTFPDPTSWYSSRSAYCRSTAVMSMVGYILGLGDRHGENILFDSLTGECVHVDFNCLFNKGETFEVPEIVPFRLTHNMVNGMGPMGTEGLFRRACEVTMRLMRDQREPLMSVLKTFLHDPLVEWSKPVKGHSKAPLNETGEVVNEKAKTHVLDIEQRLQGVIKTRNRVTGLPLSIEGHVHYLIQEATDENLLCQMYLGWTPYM
Description: ATR Inhibition Assay (radioactive-phosphate incorporation). It is filed as biochemical. The note with it: Ki(app); 5 nM full-length ATR, 10 μM ATP, 800 μM target peptide, 25° C.; class symbols; read-out: ATR Inhibition Ki. The procedure: Compounds were screened for their ability to inhibit ATR kinase using a radioactive-phosphate incorporation assay. Assays were carried out in a mixture of 50 mM Tris/HCl (pH 7.5), 10 mM MgCl2 and 1 mM DTT. Final substrate concentrations were 10 μM [y-33P]ATP (3mCi 33P ATP/mmol ATP, Perkin Elmer) and 800 μM target peptide ([…]).
Assays were carried out at 25° C. in the presence of 5 nM full-length ATR. An assay stock buffer solution was prepared containing all of the reagents listed above, with the exception of ATP and the test compound of interest. […] The plate was pre-incubated for 10 minutes at 25° C. and the reaction initiated by addition of 15 μL [y-33P]ATP (final concentration 10 μM).
The reaction was stopped after […] by the addition of 30 μL 0.1M phosphoric acid containing 2 mM ATP. A multiscreen phosphocellulose filter 96-well plate (Millipore, Cat no. MAPHN0B50) was pretreated with 100 μL 0.2M phosphoric acid prior to the addition of 45 μL of the stopped assay mixture. The plate was washed with 5×200 μL 0.2M phosphoric acid.
After removing mean background values for all of the data points, Ki(app) data were calculated from non-linear regression analysis of the initial rate data using the Prism software package (GraphPad Prism version 3.0cx for Macintosh, GraphPad Software, San Diego Calif., USA).
Take `CC(C)S(=O)(=O)c1ccc(-c2cnc3[nH]cc(C(=O)NCC4CCCO4)c3n2)cc1` (stereo not drawn) [Compound I-63, 2-(4-isopropylsulfonylphenyl)-N-(tetrahydrofuran-2-ylmethyl)-5H-pyrrolo[2,3-b]pyrazine-7-carboxamide]: the Ki was less than 100 nM.
With `Cc1cccc(CNC(=O)c2c[nH]c3ncc(-c4ccc(S(=O)(=O)C(C)C)cc4)nc23)c1` [Compound I-16, 2-(4-isopropylsulfonylphenyl)-N-(m-tolylmethyl)-5H-pyrrolo[2,3-b]pyrazine-7-carboxamide], the Ki is less than 100 nM.
Still for that read-out and setting: the same measure for `Cc1ccc(NC(=O)c2c[nH]c3ncc(-c4ccc(S(=O)(=O)C(C)C)cc4)nc23)cc1` [Compound I-70, 2-(4-isopropylsulfonylphenyl)-N-(p-tolyl)-5H-pyrrolo[2,3-b]pyrazine-7-carboxamide]: 100 to 500 nM.
With `CC(C)S(=O)(=O)c1ccc(-c2cnc3[nH]cc(C(=O)N4CCCC4CO)c3n2)cc1` (stereo not drawn) [Compound I-40, [2-(hydroxymethyl)pyrrolidin-1-yl]-[2-(4-isopropylsulfonylphenyl)-5H-pyrrolo[2,3-b]pyrazin-7-yl]methanone], the Ki was in the range of 500 to 5000 nM.
For `CC(C)S(=O)(=O)c1ccc(-c2cnc3[nH]cc(C(=O)Nc4ccc(CCO)cc4)c3n2)cc1` [Compound I-24, N-[4-(2-hydroxyethyl)phenyl]-2-(4-isopropylsulfonylphenyl)-5H-pyrrolo[2,3-b]pyrazine-7-carboxamide], the Ki is less than 100 nM.
`CC[C@@H](CO)NC(=O)c1c[nH]c2ncc(-c3ccc(S(=O)(=O)C(C)C)cc3)nc12` [Compound I-117, N-[(1S)-1-(hydroxymethyl)propyl]-2-(4-isopropylsulfonylphenyl)-5H-pyrrolo[2,3-b]pyrazine-7-carboxamide]: the Ki was 100 to 500 nM.
On the same count and under the same terms, the same measure for `CC(C)S(=O)(=O)c1ccc(-c2cnc3[nH]cc(C(=O)N[C@@H](C(N)=O)c4ccccc4)c3n2)cc1` [Compound I-123, N-[(1R)-2-amino-2-oxo-1-phenyl-ethyl]-2-(4-isopropylsulfonylphenyl)-5H-pyrrolo[2,3-b]pyrazine-7-carboxamide]: 100 to 500 nM; for `CC(c1ccc(Cl)cc1)N(C)C(=O)c1c[nH]c2ncc(-c3ccc(S(=O)(=O)C(C)C)cc3)nc12` (stereo not drawn) [Compound I-135, N-[1-(4-chlorophenyl)ethyl]-2-(4-isopropylsulfonylphenyl)-N-methyl-5H-pyrrolo[2,3-b]pyrazine-7-carboxamide]: less than 100 nM.
As for `CC(C)S(=O)(=O)c1ccc(-c2cnc3[nH]cc(C(=O)NC4CNC4)c3n2)cc1` [Compound I-122, N-(azetidin-3-yl)-2-(4-isopropylsulfonylphenyl)-5H-pyrrolo[2,3-b]pyrazine-7-carboxamide], the Ki is 500 to 5000 nM.
Same read-out and setting: in the case of `CC(C)S(=O)(=O)c1ccc(-c2cnc3[nH]cc(C(=O)NC[C@@H]4CCCC[C@H]4O)c3n2)cc1` [Compound I-33, N-[[(1S,2R)-2-hydroxycyclohexyl]methyl]-2-(4-isopropylsulfonylphenyl)-5H-pyrrolo[2,3-b]pyrazine-7-carboxamide] it was less than 100 nM.
Turning to `CC(C)S(=O)(=O)c1ccc(-c2cnc3[nH]cc(C(=O)NC(c4ccccc4)c4ccccc4)c3n2)cc1` [Compound I-108, N-benzhydryl-2-(4-isopropylsulfonylphenyl)-5H-pyrrolo[2,3-b]pyrazine-7-carboxamide], the Ki fell in the range of 500 to 5000 nM.
Same read-out and setting: the same measure for `CC(C)S(=O)(=O)c1ccc(-c2cnc3[nH]cc(C(=O)N[C@@H](C)c4ccccc4F)c3n2)cc1` [Compound I-71, N-[(1S)-1-(2-fluorophenyl)ethyl]-2-(4-isopropylsulfonylphenyl)-5H-pyrrolo[2,3-b]pyrazine-7-carboxamide]: 100 to 500 nM.
As for `Cc1ccc(CNC(=O)c2c[nH]c3ncc(-c4ccc(S(=O)(=O)C(C)C)cc4)nc23)c(C)c1` [Compound I-82, N-[(2,4-dimethylphenyl)methyl]-2-(4-isopropylsulfonylphenyl)-5H-pyrrolo[2,3-b]pyrazine-7-carboxamide], the Ki is less than 100 nM.
Still for that read-out and setting: the same measure for `CC(C)S(=O)(=O)c1ccc(-c2cnc3[nH]cc(C(=O)NCC4CCC(CN)CC4)c3n2)cc1` (stereo not drawn) [Compound I-93, N-[[4-(aminomethyl)cyclohexyl]methyl]-2-(4-isopropylsulfonylphenyl)-5H-pyrrolo[2,3-b]pyrazine-7-carboxamide]: 100 to 500 nM.
Regarding `CC(C)S(=O)(=O)c1ccc(-c2cnc3[nH]cc(C(=O)NC4CCC(CO)CC4)c3n2)cc1` (stereo not drawn) [Compound I-127, N-[4-(hydroxymethyl)cyclohexyl]-2-(4-isopropylsulfonylphenyl)-5H-pyrrolo[2,3-b]pyrazine-7-carboxamide], the Ki is less than 100 nM.
On the same count and under the same terms, in the case of `CC(C)S(=O)(=O)c1ccc(-c2cnc3[nH]cc(C(=O)NCc4ccc(N)cc4)c3n2)cc1` [Compound I-57, N-[(4-aminophenyl)methyl]-2-(4-isopropylsulfonylphenyl)-5H-pyrrolo[2,3-b]pyrazine-7-carboxamide] it was less than 100 nM; in that of `CC(C)S(=O)(=O)c1ccc(-c2cnc3[nH]cc(C(=O)Nc4cccc(O)c4)c3n2)cc1` [Compound I-22, N-(3-hydroxyphenyl)-2-(4-isopropylsulfonylphenyl)-5H-pyrrolo[2,3-b]pyrazine-7-carboxamide], less than 100 nM.
The same measure, in the same setting: the same measure for `CC(C)S(=O)(=O)c1ccc(-c2cnc3[nH]cc(C(=O)NC(CCO)c4cccc(O)c4)c3n2)cc1` (stereo not drawn) [Compound I-77, N-[3-hydroxy-1-(3-hydroxyphenyl)propyl]-2-(4-isopropylsulfonylphenyl)-5H-pyrrolo[2,3-b]pyrazine-7-carboxamide]: 100 to 500 nM; for `COc1ccc(NC(=O)c2c[nH]c3ncc(-c4ccc(S(=O)(=O)C(C)C)cc4)nc23)cc1` [Compound I-12, 2-(4-isopropylsulfonylphenyl)-N-(4-methoxyphenyl)-5H-pyrrolo[2,3-b]pyrazine-7-carboxamide]: 100 to 500 nM.
Consider `CC(C)S(=O)(=O)c1ccc(-c2cnc3[nH]cc(C(=O)Nc4ccccc4O)c3n2)cc1` [Compound I-25, N-(2-hydroxyphenyl)-2-(4-isopropylsulfonylphenyl)-5H-pyrrolo[2,3-b]pyrazine-7-carboxamide], for which the Ki is less than 100 nM.
For the compound `CC(C)S(=O)(=O)c1ccc(-c2cnc3[nH]cc(C(=O)Nc4cccc(C(N)=O)c4)c3n2)cc1` [Compound I-36, N-(3-carbamoylphenyl)-2-(4-isopropylsulfonylphenyl)-5H-pyrrolo[2,3-b]pyrazine-7-carboxamide], the Ki was less than 100 nM.

The assay is the same for the next values; noted with them: Ki(app); 5 nM full-length ATR, 10 μM ATP, 800 μM target peptide, 25° C.; given as numeric lower bound without unit; read-out: ATR Inhibition Ki.
As to `CC(C)S(=O)(=O)c1ccc(-c2cnc3[nH]cc(C(=O)NC4(CO)CC4)c3n2)cc1` [Compound I-113, N-[1-(hydroxymethyl)cyclopropyl]-2-(4-isopropylsulfonylphenyl)-5H-pyrrolo[2,3-b]pyrazine-7-carboxamide], the Ki is more than 1000 nM.
Still for that read-out and setting: in the case of `CC(C)S(=O)(=O)c1ccc(-c2cnc3[nH]cc(C(=O)N4CCN(C(=O)OC(C)(C)C)CC4)c3n2)cc1` [Compound I-132, tert-butyl 4-[2-(4-isopropylsulfonylphenyl)-5H-pyrrolo[2,3-b]pyrazine-7-carbonyl]piperazine-1-carboxylate] it was more than 2500 nM.
Regarding `CC(C)S(=O)(=O)c1ccc(-c2cnc3[nH]cc(C(=O)NC4CN(C(=O)OC(C)(C)C)C4)c3n2)cc1` [Compound I-111, tert-butyl 3-[[2-(4-isopropylsulfonylphenyl)-5H-pyrrolo[2,3-b]pyrazine-7-carbonyl]amino]azetidine-1-carboxylate], the Ki is more than 250 nM.
